Measurements from publication PMC7993375, “Discovery of novel quinoline-based analogues of combretastatin A-4 as tubulin polymerisation inhibitors with apoptosis inducing activity and potent anticancer effect” (Journal of Enzyme Inhibition and Medicinal Chemistry, 2021).

Tested on: MCF-7 cells
Test: Colony formation assay
Format: cell-based, human
Settings: 50 and 250 nM
Method: MCF-7 cells (600 cells per well) were seeded in 6-well plates and incubated for 24 h before being then treated with different doses of the compound 12c (50 and 250 nM) for 14 days. Following, the cells were washed with PBS twice and subsequently fixed with 4% paraformaldehyde and stained with 0.05% crystal violet for 30 min. Finally, cells were visualised using an inverted microscope.

With COc1cc(C2=NC(=Cc3cc4ccc(C)cc4nc3OC)C(=O)O2)cc(OC)c1OC [Compound 12c, 4-[(2-Methoxy-7-methylquinolin-3-yl)methylene]-2–(3,4,5-trimethoxyphenyl) oxazol-5(4H)-one] the “clonogenic formation potential of MCF-7 cells” value was “suppressed the clonogenic formation potential of MCF-7 cells in a dose dependent manner”.
